In brackets after ≈: the same amount, converted by molar mass.
What was measured:
Streptococcus pyogenes [1] = experiment: Antibacterial activity against constitutive MLS resistance Streptococcus pyogenes 166 GR-Micro by broth microdilution method; assay type: functional
HepG2 = experiment: Cytotoxicity against human HepG2 cells after 24 hrs by MTS assay; assay type: cell-based; settings: HepG2, 24 h
Haemophilus influenzae = experiment: Antibacterial activity against Haemophilus influenzae ATCC 49247 by broth microdilution method; assay type: functional
Streptococcus pneumoniae [2] = experiment: Antibacterial activity against efflux-mediated macrolide-resistance Streptococcus pneumoniae Ci137 by broth microdilution method; assay type: functional
Streptococcus pyogenes [3] = experiment: Antibacterial activity against efflux-mediated macrolide-resistance Streptococcus pyogenes 2 by broth microdilution method; assay type: functional
Streptococcus pyogenes [4] = experiment: Antibacterial activity against inducible resistance to macrolide, licosamide and streptogramin Streptococcus pyogenes 11 by broth microdilution method; assay type: functional
THP-1 = experiment: Cytotoxicity against human THP1 cells after 24 hrs by MTS assay; assay type: cell-based; settings: THP-1, 24 h
Streptococcus pneumoniae [5] = experiment: Antibacterial activity against constitutive MLS resistance Streptococcus pneumoniae 58 by broth microdilution method; assay type: functional
Streptococcus pneumoniae [6] = experiment: Antibacterial activity against inducible resistance to macrolide and constitutive resistance to lincosamide Streptococcus pneumoniae 134 GR M by broth microdilution method; assay type: functional
Staphylococcus aureus [7] = experiment: Antibacterial activity against efflux-mediated macrolide-resistance Staphylococcus aureus PK1 by broth microdilution method; assay type: functional
Staphylococcus aureus [8] = experiment: Antibacterial activity against inducible resistance to macrolide, licosamide, and streptogramin Staphylococcus aureus 90265/97 by broth microdilution method; assay type: functional

SMILES	MIC (Streptococcus pyogenes [1]) [µg/mL]	IC50 (HepG2) [µM]	MIC (Haemophilus influenzae) [µg/mL]	MIC (Streptococcus pneumoniae [2]; read-out: MIC) [µg/mL]	MIC (Streptococcus pyogenes [3]) [µg/mL]	MIC (Streptococcus pyogenes [4]; read-out: MIC) [µg/mL]	IC50 (THP-1) [µM]	MIC (Streptococcus pneumoniae [5]) [µg/mL]	MIC (Streptococcus pneumoniae [6]) [µg/mL]	MIC (Staphylococcus aureus [7]) [µg/mL]	MIC (Staphylococcus aureus [8]) [µg/mL]	MIC (Streptococcus pneumoniae [2]) [µg/mL]	MIC (Streptococcus pyogenes [4]) [µg/mL]
CC[C@H]1OC(=O)[C@H](C)[C@@H](O[C@H]2C[C@@](C)(OC)[C@@H](OCCCOCCCCCc3ccc4c(c3)c(=O)c(C(=O)O)cn4N(C)C)[C@H](C)O2)[C@H](C)[C@@H](O[C@@H]2O[C@H](C)C[C@H](N(C)C)[C@H]2O)[C@](C)(O)C[C@@H](C)CN(C)[C@H](C)[C@@H](O)[C@]1(C)O	0.25 (≈ 0.226 µM)	13	1 (≈ 0.903 µM)	≤ 0.125	≤ 0.125	≤ 0.125	8	≤ 0.125	0.5 (≈ 0.451 µM)	≤ 0.125	≤ 0.125	–	–
CC[C@H]1OC(=O)[C@H](C)[C@@H](O[C@H]2C[C@@](C)(OC)[C@@H](OCCCOCCCc3ccc4c(c3)c(=O)c(C(=O)O)cn4C3CC3)[C@H](C)O2)[C@H](C)[C@@H](O[C@@H]2O[C@H](C)C[C@H](N(C)C)[C@H]2O)[C@](C)(O)C[C@@H](C)CN(C)[C@H](C)[C@@H](O)[C@]1(C)O	≤ 0.125	> 50	2 (≈ 1.86 µM)	≤ 0.125	≤ 0.125	≤ 0.125	48	≤ 0.125	≤ 0.125	≤ 0.125	≤ 0.125	–	–
CC[C@H]1OC(=O)[C@H](C)[C@@H](O[C@H]2C[C@@](C)(OC)[C@@H](OCCCOCCCc3ccc4c(c3)c(=O)c(C(=O)O)cn4N(C)C)[C@H](C)O2)[C@H](C)[C@@H](O[C@@H]2O[C@H](C)C[C@H](N(C)C)[C@H]2O)[C@](C)(O)C[C@@H](C)CN(C)[C@H](C)[C@@H](O)[C@]1(C)O	≤ 0.125	> 50	2 (≈ 1.85 µM)	≤ 0.125	≤ 0.125	≤ 0.125	48	≤ 0.125	0.25 (≈ 0.232 µM)	≤ 0.125	≤ 0.125	–	–
CC[C@H]1OC(=O)[C@H](C)C(=O)[C@H](C)[C@@H](O[C@@H]2O[C@H](C)C[C@H](N(C)C)[C@H]2O)[C@](C)(OC)C[C@@H](C)C(=O)[C@H](C)[C@H]2N(CCCCn3cnc(-c4cccnc4)c3)C(=O)O[C@]12C [TELITHROMYCIN]	16 (≈ 19.7 µM)	–	1 (≈ 1.23 µM)	0.5 (≈ 0.616 µM)	0.5 (≈ 0.616 µM)	≤ 0.125	–	0.25 (≈ 0.308 µM)	0.25 (≈ 0.308 µM)	0.125 (≈ 0.154 µM)	≤ 0.125	–	–
CC[C@H]1OC(=O)[C@H](C)[C@@H](O[C@H]2C[C@@](C)(OC)[C@@H](OCCCOCCCc3cc4c5c(c3)c(=O)c(C(=O)O)cn5C(C)(C)OC4)[C@H](C)O2)[C@H](C)[C@@H](O[C@@H]2O[C@H](C)C[C@H](N(C)C)[C@H]2O)[C@](C)(O)C[C@@H](C)CN(C)[C@H](C)[C@@H](O)[C@]1(C)O	≤ 0.125	> 50	1 (≈ 0.904 µM)	≤ 0.125	≤ 0.125	≤ 0.125	40	≤ 0.125	≤ 0.125	≤ 0.125	≤ 0.125	–	–
CC[C@H]1OC(=O)[C@H](C)[C@@H](O[C@H]2C[C@@](C)(OC)[C@@H](OCCCOCCCc3ccc4c(c3)c(=O)c(C(=O)O)cn4CCOC)[C@H](C)O2)[C@H](C)[C@@H](O[C@@H]2O[C@H](C)C[C@H](N(C)C)[C@H]2O)[C@](C)(O)C[C@@H](C)CN(C)[C@H](C)[C@@H](O)[C@]1(C)O	≤ 0.125	> 50	2 (≈ 1.83 µM)	≤ 0.125	≤ 0.125	≤ 0.125	> 50	≤ 0.125	≤ 0.125	≤ 0.125	≤ 0.125	–	–
CC[C@H]1OC(=O)[C@H](C)[C@@H](O[C@H]2C[C@@](C)(OC)[C@@H](OCCCOCCCCc3ccc4c(c3)c(=O)c(C(=O)O)cn4CC)[C@H](C)O2)[C@H](C)[C@@H](O[C@@H]2O[C@H](C)C[C@H](N(C)C)[C@H]2O)[C@](C)(O)C[C@@H](C)CN(C)[C@H](C)[C@@H](O)[C@]1(C)O	≤ 0.125	46	0.5 (≈ 0.464 µM)	≤ 0.125	≤ 0.125	≤ 0.125	22	≤ 0.125	≤ 0.125	≤ 0.125	≤ 0.125	–	–
CC[C@H]1OC(=O)[C@H](C)[C@@H](O[C@H]2C[C@@](C)(OC)[C@@H](OCCCOCCCCc3ccc4c(c3)c(=O)c(C(=O)O)cn4N(C)C)[C@H](C)O2)[C@H](C)[C@@H](O[C@@H]2O[C@H](C)C[C@H](N(C)C)[C@H]2O)[C@](C)(O)C[C@@H](C)CN(C)[C@H](C)[C@@H](O)[C@]1(C)O	0.5 (≈ 0.457 µM)	42	4 (≈ 3.66 µM)	≤ 0.125	≤ 0.125	≤ 0.125	20	0.25 (≈ 0.229 µM)	0.5 (≈ 0.457 µM)	≤ 0.125	≤ 0.125	–	–
CCCCn1cc(C(=O)O)c(=O)c2cc(CCCOCCCO[C@H]3[C@H](C)O[C@@H](O[C@H]4[C@H](C)[C@@H](O[C@@H]5O[C@H](C)C[C@H](N(C)C)[C@H]5O)[C@](C)(O)C[C@@H](C)CN(C)[C@H](C)[C@@H](O)[C@](C)(O)[C@@H](CC)OC(=O)[C@@H]4C)C[C@@]3(C)OC)ccc21	≤ 0.125	49	1 (≈ 0.915 µM)	≤ 0.125	≤ 0.125	≤ 0.125	27	≤ 0.125	≤ 0.125	≤ 0.125	≤ 0.125	–	–
CC[C@H]1OC(=O)[C@H](C)[C@@H](O[C@H]2C[C@@](C)(OC)[C@@H](OCCCOCCCCc3ccc4c(c3)c(=O)c(C(=O)O)cn4C3CC3)[C@H](C)O2)[C@H](C)[C@@H](O[C@@H]2O[C@H](C)C[C@H](N(C)C)[C@H]2O)[C@](C)(O)C[C@@H](C)CN(C)[C@H](C)[C@@H](O)[C@]1(C)O	≤ 0.125	47	0.5 (≈ 0.459 µM)	≤ 0.125	≤ 0.125	≤ 0.125	20	≤ 0.125	≤ 0.125	≤ 0.125	≤ 0.125	–	–
CC[C@H]1OC(=O)[C@H](C)[C@@H](O[C@H]2CC(C)(OC)[C@@H](OCCCOCCCc3ccc4c(c3)c(=O)c(C(=O)O)cn4C(C)(C)C)[C@H](C)O2)[C@H](C)[C@@H](O[C@@H]2O[C@H](C)C[C@H](N(C)C)[C@H]2O)[C@](C)(O)C[C@@H](C)CN(C)[C@H](C)[C@@H](O)[C@]1(C)O (stereo partly specified)	≤ 0.125	> 50	2 (≈ 1.83 µM)	≤ 0.125	≤ 0.125	≤ 0.125	40	≤ 0.125	≤ 0.125	≤ 0.125	≤ 0.125	–	–
CC[C@H]1OC(=O)[C@H](C)[C@@H](O[C@H]2C[C@@](C)(OC)[C@@H](OCCCOCCCc3ccc4c(c3)c(=O)c(C(=O)O)cn4C(C)C)[C@H](C)O2)[C@H](C)[C@@H](O[C@@H]2O[C@H](C)C[C@H](N(C)C)[C@H]2O)[C@](C)(O)C[C@@H](C)CN(C)[C@H](C)[C@@H](O)[C@]1(C)O	≤ 0.125	> 50	4 (≈ 3.71 µM)	≤ 0.125	≤ 0.125	≤ 0.125	46	≤ 0.125	< 0.125	≤ 0.125	≤ 0.125	–	–
CC[C@H]1OC(=O)[C@H](C)[C@@H](O[C@H]2C[C@@](C)(OC)[C@@H](O)[C@H](C)O2)[C@H](C)[C@@H](O[C@@H]2O[C@H](C)C[C@H](N(C)C)[C@H]2O)[C@](C)(O)C[C@@H](C)CN(C)[C@H](C)[C@@H](O)[C@]1(C)O [AZITHROMYCIN]	> 64	–	1 (≈ 1.34 µM)	8 (≈ 10.7 µM)	8 (≈ 10.7 µM)	16 (≈ 21.4 µM)	–	> 64	> 64	> 64	> 64	–	–
CC[C@H]1OC(=O)[C@H](C)[C@@H](O[C@H]2C[C@@](C)(OC)[C@@H](OCCCOCCCc3ccc4c(c3)c(=O)c(C(=O)O)cn4CCN(C)C)[C@H](C)O2)[C@H](C)[C@@H](O[C@@H]2O[C@H](C)C[C@H](N(C)C)[C@H]2O)[C@](C)(O)C[C@@H](C)CN(C)[C@H](C)[C@@H](O)[C@]1(C)O	1 (≈ 0.903 µM)	> 50	4 (≈ 3.61 µM)	≤ 0.125	0.25 (≈ 0.226 µM)	≤ 0.125	> 50	≤ 0.125	0.25 (≈ 0.226 µM)	≤ 0.125	≤ 0.125	–	–
CCCn1cc(C(=O)O)c(=O)c2cc(CCCOCCCO[C@H]3[C@H](C)O[C@@H](O[C@H]4[C@H](C)[C@@H](O[C@@H]5O[C@H](C)C[C@H](N(C)C)[C@H]5O)[C@](C)(O)C[C@@H](C)CN(C)[C@H](C)[C@@H](O)[C@](C)(O)[C@@H](CC)OC(=O)[C@@H]4C)C[C@@]3(C)OC)ccc21	0.25 (≈ 0.232 µM)	40	2 (≈ 1.85 µM)	≤ 0.125	≤ 0.125	≤ 0.125	18	≤ 0.125	≤ 0.125	≤ 0.125	0.25 (≈ 0.232 µM)	–	–
CC[C@H]1OC(=O)[C@H](C)[C@@H](O[C@H]2C[C@@](C)(OC)[C@@H](OCCCOCCCc3cc4c5c(c3)c(=O)c(C(=O)O)cn5C(C)(C)CO4)[C@H](C)O2)[C@H](C)[C@@H](O[C@@H]2O[C@H](C)C[C@H](N(C)C)[C@H]2O)[C@](C)(O)C[C@@H](C)CN(C)[C@H](C)[C@@H](O)[C@]1(C)O	1 (≈ 0.904 µM)	> 50	2 (≈ 1.81 µM)	–	–	–	40	≤ 0.125	≤ 0.125	0.13 (≈ 0.117 µM)	0.06 (≈ 0.0542 µM)	< 0.02	< 0.02

— ChEMBL document CHEMBL1221321, “Synthesis and properties of macrolones characterized by two ether bonds in the linker” (Bioorg Med Chem, 2010)
